Results from US8461083B2, “Herbicidal compounds” (Syngenta Limited, priority 2008, dated 2013).

Columns and labels:
[1] = system: Alopecurus myosuroides (ALOMY); assay: Post-emergence herbicidal glasshouse test; format: in vivo; conditions: post-emergence (sprayed after 8 days cultivation), evaluated after 13 days, 100=total damage to plant, 0=no damage to plant; for pest or weed control at 1000 g/ha: Alopecurus myosuroides, 312 h, read-out: POST Application ALOMY, damage to plant; for POST Application ALOMY, damage to plant: 1000 g/ha
In short: (§1)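 Seeds were sown in standard soil in pots and sprayed 1 day after sowing (pre-emergence) or after 8 days' cultivation (post-emergence). Compounds were applied at 1000 g/ha in acetone/water (50:50) with 0.5% Tween 20. Plants were kept at 24/16 °C day/night, 14 h light, 65% humidity, and damage was scored after 13 days (0 = none, 100 = total).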

[2] = system: Amaranthus retoflexus (AMARE); assay: Post-emergence herbicidal glasshouse test; format: in vivo; conditions: post-emergence (sprayed after 8 days cultivation), evaluated after 13 days, 100=total damage to plant, 0=no damage to plant; for pest or weed control at 1000 g/ha: Amaranthus retroflexus, 312 h, read-out: POST Application AMARE, damage to plant; for POST Application AMARE, damage to plant: 1000 g/ha
In short: as §1

[3] = system: Echinochloa crus-galli (ECHCG); assay: Post-emergence herbicidal glasshouse test; format: in vivo; conditions: post-emergence (sprayed after 8 days cultivation), evaluated after 13 days, 100=total damage to plant, 0=no damage to plant; for pest or weed control at 1000 g/ha: Echinochloa crus-galli, 312 h, read-out: POST Application ECHCG, damage to plant; for POST Application ECHCG, damage to plant: 1000 g/ha
In short: (§2)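 Spray at 1000 g/ha, acetone/water 50:50 + 0.5% Tween 20; pre-em 1 d post-sowing, post-em 8 d post-sowing. Glasshouse 24/16 °C, 14 h light, 65% RH, watered twice daily. Visual damage score 0–100 at 13 d.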

Setaria faberi (SETFA) [4] = assay: Post-emergence herbicidal glasshouse test; format: in vivo; conditions: post-emergence (sprayed after 8 days cultivation), evaluated after 13 days, 100=total damage to plant, 0=no damage to plant; for pest or weed control at 1000 g/ha: Setaria faberi, 312 h, read-out: POST Application SETFA, damage to plant; for POST Application SETFA, damage to plant: 1000 g/ha
In short: as §1

Solanum nigrum (SOLNI) [5] = assay: Post-emergence herbicidal glasshouse test; format: in vivo; conditions: post-emergence (sprayed after 8 days cultivation), evaluated after 13 days, 100=total damage to plant, 0=no damage to plant; for pest or weed control at 1000 g/ha: Solanum nigrum, 312 h, read-out: POST Application SOLNI, damage to plant; for POST Application SOLNI, damage to plant: 1000 g/ha
In short: as §1

[6] = system: Alopecurus myosuroides (ALOMY); assay: Pre-emergence herbicidal glasshouse test; format: in vivo; conditions: pre-emergence (sprayed after one day cultivation), evaluated after 13 days, 100=total damage to plant, 0=no damage to plant; for pest or weed control at 1000 g/ha: Alopecurus myosuroides, 312 h, read-out: PRE Application ALOMY, damage to plant; for PRE Application ALOMY, damage to plant: 1000 g/ha
In short: as §1

[7] = system: Echinochloa crus-galli (ECHCG); assay: Pre-emergence herbicidal glasshouse test; format: in vivo; conditions: pre-emergence (sprayed after one day cultivation), evaluated after 13 days, 100=total damage to plant, 0=no damage to plant; for pest or weed control at 1000 g/ha: Echinochloa crus-galli, 312 h, read-out: PRE Application ECHCG, damage to plant; for PRE Application ECHCG, damage to plant: 1000 g/ha
In short: as §2

Setaria faberi (SETFA) [8] = assay: Pre-emergence herbicidal glasshouse test; format: in vivo; conditions: pre-emergence (sprayed after one day cultivation), evaluated after 13 days, 100=total damage to plant, 0=no damage to plant; for pest or weed control at 1000 g/ha: Setaria faberi, 312 h, read-out: PRE Application SETFA, damage to plant; for PRE Application SETFA, damage to plant: 1000 g/ha
In short: as §1

Solanum nigrum (SOLNI) [9] = assay: Pre-emergence herbicidal glasshouse test; format: in vivo; conditions: pre-emergence (sprayed after one day cultivation), evaluated after 13 days, 100=total damage to plant, 0=no damage to plant; for pest or weed control at 1000 g/ha: Solanum nigrum, 312 h, read-out: PRE Application SOLNI, damage to plant; for PRE Application SOLNI, damage to plant: 1000 g/ha
In short: as §1

[10] = system: Amaranthus retoflexus (AMARE); assay: Pre-emergence herbicidal glasshouse test; format: in vivo; conditions: pre-emergence (sprayed after one day cultivation), evaluated after 13 days, 100=total damage to plant, 0=no damage to plant; for PRE Application AMARE, damage to plant: 1000 g/ha; for pest or weed control at 1000 g/ha: Amaranthus retroflexus, 312 h, read-out: PRE Application AMARE, damage to plant
In short: as §1

Structure (SMILES)	pest or weed control at 1000 g/ha [1] [%]	pest or weed control at 1000 g/ha [2] [%]	pest or weed control at 1000 g/ha [3] [%]	pest or weed control at 1000 g/ha (Setaria faberi (SETFA) [4]) [%]	pest or weed control at 1000 g/ha (Solanum nigrum (SOLNI) [5]) [%]	pest or weed control at 1000 g/ha [6] [%]	pest or weed control at 1000 g/ha [7] [%]	pest or weed control at 1000 g/ha (Setaria faberi (SETFA) [8]) [%]	pest or weed control at 1000 g/ha (Solanum nigrum (SOLNI) [9]) [%]	POST Application ALOMY, damage to plant [1]	POST Application AMARE, damage to plant [2]	POST Application ECHCG, damage to plant [3]	POST Application SETFA, damage to plant (Setaria faberi (SETFA) [4])	POST Application SOLNI, damage to plant (Solanum nigrum (SOLNI) [5])	PRE Application ALOMY, damage to plant [6]	PRE Application AMARE, damage to plant [10]	PRE Application ECHCG, damage to plant [7]	PRE Application SETFA, damage to plant (Setaria faberi (SETFA) [8])	PRE Application SOLNI, damage to plant (Solanum nigrum (SOLNI) [9])	pest or weed control at 1000 g/ha [10] [%]	other results
COCC(F)(F)c1nc2nc(C)c(F)cc2cc1C(=O)C1C(=O)C2CCC(C2)C1=O (centres unmarked) [Compound 3.13, 3-[6-fluoro-2-(2-methoxy-1,1-difluoroethyl)-7-methyl [1,8]-naphthyridine-3-carbonyl]-bicyclo[3.2.1]octane-2,4-dione]	40	70	80	80	70	10	100	80	80												melting point: 177 to 180 °C
O=C1CCCC(=O)C1C(=O)c1cc2ccc(=O)n(CC3CC3)c2nc1C(F)(F)F [Compound 2.9, 2-{8-(cyclopropylmethyl)-7-oxo-7,8-dihydro-2-trifluoromethyl-[1,8]-naphthyridine-3-carbony}-cyclohexane-1,3-dione]										90	100	90	90	90	60	60	100	90	90		
Cc1nc2nc(C(F)(F)F)c(C(=O)C3C(=O)C(C)(C)OC(C)(C)C3=O)cc2cc1F [Compound 5.2]	70	90	80	80	70	90	100	100	100											100	
CCN(CC)c1nc2nc(C(F)(F)F)c(C(=O)C3C(=O)CCCC3=O)cc2cc1F [Compound 1.73, 2-[7-(diethylamino)-6-fluoro-2-trifluoromethyl-[1,8]-naphthyridine-3-carbony]-cyclohexane-1,3-dione]	60	70	80	80	70	60	100	100	100											70	
CCNc1nc2nc(C(F)(F)F)c(C(=O)C3C(=O)CCCC3=O)cc2cc1F [Compound 1.84]	70	80	80	80	80	60	100	100	100											100	
O=C(Cn1c(=O)ccc2cc(C(=O)C3C(=O)CCCC3=O)c(C(F)(F)F)nc21)c1ccccc1 [Compound 2.6, 2-{8-(2-phenyl-2-oxo-ethyl)-7-oxo-7,8-dihydro-2-trifluoromethyl-[1,8]-naphthyridine-3-carbony}-cyclohexane-1,3-dione]										40	90	70	70	90	20	60	40	10	90		
O=C1CCCC(=O)C1C(=O)c1cc2ccc(=O)n(Cc3ccccc3F)c2nc1C(F)(F)F [Compound 2.12]										70	70	70	90	100	80	60	90	90	90		
CC(C)n1c(=O)ccc2cc(C(=O)C3C(=O)CCCC3=O)c(C(F)(F)F)nc21 [Compound 2.10, 2-{8-isopropyl-7-oxo-7,8-dihydro-2-trifluoromethyl-[1,8]-naphthyridine-3-carbony}-cyclohexane-1,3-dione]	80	100	90	90	100	50	90	80	90											80	
